Key:
[1] = Acetaminophen formulation blends tested in different volumes of water and containers; assay type: physicochemical; details: conclusion of Example 13
Protocol: Blends of the above components were tested in three different volumes df water: 20 ml, 40 ml and 80 ml in different containers.
In the case of the second formulation a single volume (20 ml) in two different containers were investigated, namely a small bottle and a sampling container with cap.

[2] = Ibuprofen formulation test: behaviour in water; assay type: physicochemical; details: conclusion of Example 14
Protocol: Two volumes of water were tested, namely 20 ml and 40 ml in two different containers, namely a small bottle and a beaker. One volume of water was tested, namely 20 ml, and a single container, namely a small bottle. In the case of the above two formulations, the behaviour of ibuprofen in water was tested and the generation of bubbles was optimised by increasing the quantity of citric acid, sodium bicarbonate and potassium hydrogen carbonate.

remaining in suspension in water [1] | stability in water [1] | remaining in suspension in water [2] | stability in water [2] | SMILES
does not remain in suspension | not stable in water |  |  | CC(=O)Nc1ccc(O)cc1 [acetaminophen, Acetaminophen]
 |  | does not remain in suspension | not stable in water | CC(C)Cc1ccc(C(C)C(=O)O)cc1 (stereo not drawn) [ibuprofen, 4-Isobutyl-Alpha-Methylphenylacetic Acid (Ibuprofen)]

— patent US20070193894A1, “Container for constituting a formulation in liquid form” (IDD-EAL MANUFACTURING COMPANY LIMITED, priority 2004, published 2007)
